Measured values reported in US12454529B2, “Piperazine cyclic ureas” (SIRONAX LTD., priority 2020, dated 2025).
pEC50: −log10 of the molar value.

system: HT-29 cells; test: HT-29 cell necrosis/necroptosis inhibition (TNF-α + SMAC mimetic + zVAD-FMK; CellTiter-Glo cell viability); type: cell-based; conditions: HT-29 cells, TNF-α 10 ng/ml + SMAC mimetic 6 μM + zVAD-FMK 10 μM, 20 hours; geometric mean, 10 points in duplicate; read-out: EC50 (Cell activity; Necrosis/Necroptosis Inhibitory Activity, Compounds 143-323)
In short: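 HT-29 cells (~5,000/well) were switched to FBS-free McCOY's 5A holding TNF-α (10 ng/ml), SMAC mimetic (6 μM) and zVAD-FMK (10 μM), then dosed with a 10-point 1:3 series for 20 h at 37 °C. CellTiter-Glo luminescence gave viability; geometric mean EC50 from duplicates.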

SMILES	pEC50
Cc1nc(C)n(-c2nc(N3CCN(C(=O)N4N=CCC4c4ncc(C)s4)CC3)ncc2F)n1 (centres unmarked) [Compound 231, (4-(4-(3,5-dimethyl-1H-1,2,4-triazol-1-yl)-5-fluoropyrimidin-2-yl)piperazin-1-yl)(5-(5-methylthiazol-2-yl)-4,5-dihydro-1H-pyrazol-1-yl)methanone]	7.00 to 10.00

same assay, conditions: Homo sapiens, HT-29, 20 h, read-out: EC50 (Cell activity; Necrosis/Necroptosis Inhibitory Activity, Compounds 143-323)

SMILES	pEC50
CC(=O)N1Cc2c(-c3nc(N4CCN(C(=O)N5N=CC[C@H]5c5cc(F)cc(C#N)c5)CC4)ncc3F)nn(C)c2C1 [Compound 152, (S)-3-(1-(4-(4-(5-acetyl-1-methyl-1,4,5,6-tetrahydropyrrolo[3,4-c]pyrazol-3-yl)-5-fluoropyrimidin-2-yl)piperazine-1-carbonyl)-4,5-dihydro-1H-pyrazol-5-yl)-5-fluorobenzonitrile]	5.00 to 6.00

same assay, conditions: Homo sapiens; HT-29 cells, TNF-α 10 ng/ml + SMAC mimetic 6 μM + zVAD-FMK 10 μM, 20 hours; geometric mean, 10 points in duplicate; read-out: EC50 (Cell activity; Necrosis/Necroptosis Inhibitory Activity, Compounds 1-142)

SMILES	pEC50
O=C(N1CCN(c2ncc(F)c(-c3cnn[nH]3)n2)CC1)N1N=CC[C@H]1c1cc(F)cc(F)c1 [Compound 8, (S)-(5-(3,5-difluorophenyl)-4,5-dihydro-1H-pyrazol-1-yl)(4-(5-fluoro-4-(1H-1,2,3-triazol-5-yl)pyrimidin-2-yl)piperazin-1-yl)methanone]	7.00 to 10.00
Cc1nn(CC(N)=O)c(C)c1-c1nc(N2CCN(C(=O)N3N=CC[C@H]3c3cc(F)cc(C#N)c3)CC2)ncc1F [Compound 123, (S)-2-(4-(2-(4-(5-(3-cyano-5-fluorophenyl)-4,5-dihydro-1H-pyrazole-1-carbonyl)piperazin-1-yl)-5-fluoropyrimidin-4-yl)-3,5-dimethyl-1H-pyrazol-1-yl)acetamide]	7.00 to 10.00
N#Cc1cc(F)cc([C@@H]2CC=NN2C(=O)N2CCN(c3ncc(F)c(-n4cc(C(N)=O)cn4)n3)CC2)c1 [Compound 107, (S)-1-(2-(4-(5-(3-cyano-5-fluorophenyl)-4,5-dihydro-1H-pyrazole-1-carbonyl)piperazin-1-yl)-5-fluoropyrimidin-4-yl)-1H-pyrazole-4-carboxamide]	7.00 to 10.00
Cc1nn(CC(N)=O)cc1-c1nc(N2CCN(C(=O)N3N=CC[C@H]3c3cc(F)cc(F)c3)CC2)ncc1F [Compound 18, (S)-2-(4-(2-(4-(5-(3,5-difluorophenyl)-4,5-dihydro-1H-pyrazole-1-carbonyl)piperazin-1-yl)-5-fluoropyrimidin-4-yl)-3-methyl-1H-pyrazol-1-yl)acetamide]	7.00 to 10.00
N#Cc1cncc([C@@H]2CC=NN2C(=O)N2CCN(c3nccc(-c4cc[nH]n4)n3)CC2)c1 [Compound 38, (S)-5-(1-(4-(4-(1H-pyrazol-3-yl)pyrimidin-2-yl)piperazine-1-carbonyl)-4,5-dihydro-1H-pyrazol-5-yl)nicotinonitrile]	7.00 to 10.00
Cc1c(-c2nc(N3CCN(C(=O)N4N=CC[C@H]4c4cc(F)cc(F)c4)CC3)ncc2F)nnn1CC(N)=O [Compound 31, (S)-2-(4-(2-(4-(5-(3,5-difluorophenyl)-4,5-dihydro-1H-pyrazole-1-carbonyl)piperazin-1-yl)-5-fluoropyrimidin-4-yl)-5-methyl-1H-1,2,3-triazol-1-yl)acetamide]	7.00 to 10.00
NC(=O)c1cnn(-c2nc(N3CCN(C(=O)N4N=CC[C@H]4c4cccc(F)c4)CC3)ncc2F)c1 [Compound 110, (S)-1-(5-fluoro-2-(4-(5-(3-fluorophenyl)-4,5-dihydro-1H-pyrazole-1-carbonyl)piperazin-1-yl)pyrimidin-4-yl)-1H-pyrazole-4-carboxamide]	7.00 to 10.00
Cc1nn(CCO)c(C)c1-c1nc(N2CCN(C(=O)N3N=CC[C@H]3c3cc(F)cc(C#N)c3)CC2)ncc1F [Compound 124, (S)-3-fluoro-5-(1-(4-(5-fluoro-4-(1-(2-hydroxyethyl)-3,5-dimethyl-1H-pyrazol-4-yl)pyrimidin-2-yl)piperazine-1-carbonyl)-4,5-dihydro-1H-pyrazol-5-yl)benzonitrile]	7.00 to 10.00
Cc1cnn(C)c1-c1nc(N2CCN(C(=O)N3N=CC[C@H]3c3cc(F)cc(C#N)c3)CC2)ncc1F [Compound 62, (S)-3-(1-(4-(4-(1,4-dimethyl-1H-pyrazol-5-yl)-5-fluoropyrimidin-2-yl)piperazine-1-carbonyl)-4,5-dihydro-1H-pyrazol-5-yl)-5-fluorobenzonitrile]	7.00 to 10.00

same assay, conditions: Homo sapiens; HT-29 cells, TNF-α 10 ng/ml + SMAC mimetic 6 μM + zVAD-FMK 10 μM, 20 hours; geometric mean, 10 points in duplicate; read-out: EC50 (Cell activity; Necrosis/Necroptosis Inhibitory Activity, Compounds 143-323)

SMILES	pEC50
Cc1nnc(-c2nc(N3CCN(C(=O)N4N=CCC4c4ncccc4Cl)CC3)ncc2F)s1 (centres unmarked) [Compound 210]	7.00 to 10.00
Cc1nc(C#N)nn1-c1nc(N2CCN(C(=O)N3N=CC[C@H]3c3cncc(F)c3)CC2)ncc1F [Compound 255, (S)-1-(5-fluoro-2-(4-(5-(5-fluoropyridin-3-yl)-4,5-dihydro-1H-pyrazole-1-carbonyl)piperazin-1-yl)pyrimidin-4-yl)-5-methyl-1H-1,2,4-triazole-3-carbonitrile]	7.00 to 10.00
Cc1nnc(-c2nc(N3CCN(C(=O)N4N=CC[C@H]4c4cc(F)cc(C#N)c4)CC3)ccc2F)s1 [Compound 172, (S)-3-fluoro-5-(1-(4-(5-fluoro-6-(5-methyl-1,3,4-thiadiazol-2-yl)pyridin-2-yl)piperazine-1-carbonyl)-4,5-dihydro-1H-pyrazol-5-yl)benzonitrile]	7.00 to 10.00
Cc1c(N)nn(C)c1-c1nc(N2CCN(C(=O)N3N=CC[C@H]3c3cc(F)cc(C#N)c3)CC2)ncc1F [Compound 153, (S)-3-(1-(4-(4-(3-amino-1,4-dimethyl-1H-pyrazol-5-yl)-5-fluoropyrimidin-2-yl)piperazine-1-carbonyl)-4,5-dihydro-1H-pyrazol-5-yl)-5-fluorobenzonitrile]	7.00 to 10.00
Cn1nc(CF)nc1-c1nc(N2CCN(C(=O)N3N=CC[C@H]3c3cc(F)cc(C#N)c3)CC2)ncc1F [Compound 170, (S)-3-fluoro-5-(1-(4-(5-fluoro-4-(3-(fluoromethyl)-1-methyl-1H-1,2,4-triazol-5-yl)pyrimidin-2-yl)piperazine-1-carbonyl)-4,5-dihydro-1H-pyrazol-5-yl)benzonitrile]	7.00 to 10.00
Cc1nc(C)n(-c2nc(N3CCN(C(=O)N4N=CCC4c4ncccc4Cl)CC3)ncc2F)n1 (centres unmarked) [Compound 189, (5-(3-chloropyridin-2-yl)-4,5-dihydro-1H-pyrazol-1-yl)(4-(4-(3,5-dimethyl-1H-1,2,4-triazol-1-yl)-5-fluoropyrimidin-2-yl)piperazin-1-yl)methanone]	7.00 to 10.00
Cc1ncc(C2CC=NN2C(=O)N2CCN(c3nc(-c4c(C)cnn4C)ccc3F)CC2)s1 (centres unmarked) [Compound 270, (4-(6-(1,4-dimethyl-1H-pyrazol-5-yl)-3-fluoropyridin-2-yl)piperazin-1-yl)(5-(2-methylthiazol-5-yl)-4,5-dihydro-1H-pyrazol-1-yl)methanone]	7.00 to 10.00
Cc1nc(C)n(-c2ncc(F)c(N3CCN(C(=O)N4N=CC[C@H]4c4cc(F)cc(C#N)c4)CC3)n2)n1 [Compound 258, (S)-3-(1-(4-(2-(3,5-dimethyl-1H-1,2,4-triazol-1-yl)-5-fluoropyrimidin-4-yl)piperazine-1-carbonyl)-4,5-dihydro-1H-pyrazol-5-yl)-5-fluorobenzonitrile]	7.00 to 10.00
Cc1nn(-c2ccnc(N3CCN(C(=O)N4N=CC[C@H]4c4cc(F)cc(C#N)c4)CC3)n2)c(C)c1S(C)(=O)=O [Compound 206, (S)-3-(1-(4-(4-(3,5-dimethyl-4-(methylsulfonyl)-1H-pyrazol-1-yl)pyrimidin-2-yl)piperazine-1-carbonyl)-4,5-dihydro-1H-pyrazol-5-yl)-5-fluorobenzonitrile]	7.00 to 10.00
Cc1nc(C)n(-c2nc(N3CCN(C(=O)N4N=CC[C@H]4c4cc(F)cc(C#N)c4)CC3)c(F)cc2F)n1 [Compound 233, (S)-3-(1-(4-(6-(3,5-dimethyl-1H-1,2,4-triazol-1-yl)-3,5-difluoropyridin-2-yl)piperazine-1-carbonyl)-4,5-dihydro-1H-pyrazol-5-yl)-5-fluorobenzonitrile]	7.00 to 10.00
N#Cc1cc(F)cc([C@@H]2CC=NN2C(=O)N2CCN(c3nc(-n4cc(C#N)cn4)ncc3F)CC2)c1 [Compound 219, (S)-1-(4-(4-(5-(3-cyano-5-fluorophenyl)-4,5-dihydro-1H-pyrazole-1-carbonyl)piperazin-1-yl)-5-fluoropyrimidin-2-yl)-1H-pyrazole-4-carbonitrile]	7.00 to 10.00
COc1cnc(N2CCN(C(=O)N3N=CC[C@H]3c3cc(F)cc(C#N)c3)CC2)nc1-c1ncnn1C [Compound 150, (S)-3-fluoro-5-(1-(4-(5-methoxy-4-(1-methyl-1H-1,2,4-triazol-5-yl)pyrimidin-2-yl)piperazine-1-carbonyl)-4,5-dihydro-1H-pyrazol-5-yl)benzonitrile]	7.00 to 10.00
Cc1nc(C(N)=O)nn1-c1nc(N2CCN(C(=O)N3N=CC[C@H]3c3cncc(F)c3)CC2)ncc1F [Compound 253, (S)-1-(5-fluoro-2-(4-(5-(5-fluoropyridin-3-yl)-4,5-dihydro-1H-pyrazole-1-carbonyl)piperazin-1-yl)pyrimidin-4-yl)-5-methyl-1H-1,2,4-triazole-3-carboxamide]	7.00 to 10.00
Cc1nn(-c2nc(N3CCN(C(=O)N4N=CC[C@H]4c4cc(F)cc(C#N)c4)CC3)ncc2F)c(C)c1NC(=O)CC1CC1 [Compound 195, (S)—N-(1-(2-(4-(5-(3-cyano-5-fluorophenyl)-4,5-dihydro-1H-pyrazole-1-carbonyl)piperazin-1-yl)-5-fluoropyrimidin-4-yl)-3,5-dimethyl-1H-pyrazol-4-yl)-2-cyclopropylacetamide]	7.00 to 10.00
Cc1nc(C)n(-c2nc(N3CCN(C(=O)N4N=CCC4c4csc(C)n4)CC3)ncc2F)n1 (centres unmarked) [Compound 213, (4-(4-(3,5-dimethyl-1H-1,2,4-triazol-1-yl)-5-fluoropyrimidin-2-yl)piperazin-1-yl)(5-(2-methylthiazol-4-yl)-4,5-dihydro-1H-pyrazol-1-yl)methanone]	6.00 to 7.00
